Test: xn = mol fraction of the nth substance listed
Details: 102 kPa, Liquid; for viscosity: Concentric cylinders viscometry; for speed of sound: Frequency=3 MHz, Single path-length method; for mass density: Vibrating tube method

CCCCCCCCC1CCCCC1 [octylcyclohexane] + CCCCCCCCCCCCCCCC
Details | mass density [kg/m3] | speed of sound [m/s] | viscosity [mPa·s]
293.15 K, x1 = 0.2001 | 780.29 | 1361.6 | 3.46
293.15 K, x1 = 0.3999 | 787.74 | 1366.8 | 3.46
293.15 K, x1 = 0.5002 | 791.67 | 1369.7 | 3.46
293.15 K, x1 = 0.6009 | 795.83 | 1372.6 | 3.44
293.15 K, x1 = 0.8006 | 804.62 | 1378.6 | 3.46
293.15 K, x1 = 1 | 814.14 | 1387 | 3.52
303.15 K, x1 = 0.2001 | 773.36 | 1324.4 | 2.75
303.15 K, x1 = 0.3999 | 780.82 | 1329.6 | 2.74
303.15 K, x1 = 0.5002 | 784.77 | 1332.1 | 2.75
303.15 K, x1 = 0.6009 | 788.93 | 1335 | 2.74
303.15 K, x1 = 0.8006 | 797.71 | 1341.3 | 2.76
303.15 K, x1 = 1 | 807.22 | 1349.1 | 2.79
313.15 K, x1 = 0.2001 | 766.44 | 1287.9 | 2.24
313.15 K, x1 = 0.3999 | 773.91 | 1293 | 2.23
313.15 K, x1 = 0.5002 | 777.87 | 1295.4 | 2.24
313.15 K, x1 = 0.6009 | 782.03 | 1298.3 | 2.23
313.15 K, x1 = 0.8006 | 790.79 | 1304.6 | 2.24
313.15 K, x1 = 1 | 800.29 | 1312.1 | 2.27
323.15 K, x1 = 0.2001 | 759.53 | 1252 | 1.85
323.15 K, x1 = 0.3999 | 767 | 1257.2 | 1.84
323.15 K, x1 = 0.5002 | 770.97 | 1259.5 | 1.85
323.15 K, x1 = 0.6009 | 775.12 | 1262.4 | 1.85
323.15 K, x1 = 0.8006 | 783.86 | 1268.6 | 1.85
323.15 K, x1 = 1 | 793.36 | 1275.9 | 1.88
333.15 K, x1 = 0.2001 | 752.62 | 1217.1 | 1.56
333.15 K, x1 = 0.3999 | 760.08 | 1222.1 | 1.55
333.15 K, x1 = 0.5002 | 764.05 | 1224.6 | 1.56
333.15 K, x1 = 0.6009 | 768.2 | 1227.3 | 1.56
333.15 K, x1 = 0.8006 | 776.93 | 1233.7 | 1.56
333.15 K, x1 = 1 | 786.42 | 1240.5 | 1.58
343.15 K, x1 = 0.2001 | 745.7 | – | 1.34
343.15 K, x1 = 0.3999 | 753.2 | – | 1.33
343.15 K, x1 = 0.5002 | 757.2 | – | 1.35
343.15 K, x1 = 0.6009 | 761.3 | – | 1.33
343.15 K, x1 = 0.8006 | 770 | – | 1.34
343.15 K, x1 = 1 | 779.5 | – | 1.36
353.15 K, x1 = 0.2001 | 738.8 | – | 1.15
353.15 K, x1 = 0.3999 | 746.3 | – | 1.15
353.15 K, x1 = 0.5002 | 750.2 | – | 1.15
353.15 K, x1 = 0.6009 | 754.3 | – | 1.15
353.15 K, x1 = 0.8006 | 763.1 | – | 1.16
353.15 K, x1 = 1 | 772.5 | – | 1.16
363.15 K, x1 = 0.2001 | 731.8 | – | 1.02
363.15 K, x1 = 0.3999 | 739.3 | – | 1
363.15 K, x1 = 0.5002 | 743.3 | – | 1.03
363.15 K, x1 = 0.6009 | 747.4 | – | 1.01
363.15 K, x1 = 0.8006 | 756.1 | – | 1.01
363.15 K, x1 = 1 | 765.5 | – | 1.04
373.15 K, x1 = 0.2001 | 724.8 | – | 0.887
373.15 K, x1 = 0.3999 | 732.3 | – | 0.889
373.15 K, x1 = 0.5002 | 736.3 | – | 0.89
373.15 K, x1 = 0.6009 | 740.4 | – | 0.895
373.15 K, x1 = 0.8006 | 749.1 | – | 0.897
373.15 K, x1 = 1 | 758.5 | – | 0.899

CCCCCC1CCCCC1 [pentylcyclohexane] + CCCCCCCCCCCCCCCC
Details | mass density [kg/m3] | speed of sound [m/s] | viscosity [mPa·s]
293.15 K, x1 = 0.2004 | 777.53 | 1354.6 | 3.1
293.15 K, x1 = 0.4 | 782.39 | 1351.9 | 2.74
293.15 K, x1 = 0.4999 | 785.18 | 1350.6 | 2.56
293.15 K, x1 = 0.5999 | 788.23 | 1349.4 | 2.38
293.15 K, x1 = 0.8006 | 795.35 | 1347.2 | 2.03
293.15 K, x1 = 1 | 804.11 | 1345.9 | 1.7
303.15 K, x1 = 0.2004 | 770.57 | 1317.2 | 2.49
303.15 K, x1 = 0.4 | 775.39 | 1314.4 | 2.22
303.15 K, x1 = 0.4999 | 778.15 | 1313 | 2.08
303.15 K, x1 = 0.5999 | 781.16 | 1311.6 | 1.95
303.15 K, x1 = 0.8006 | 788.18 | 1309 | 1.68
303.15 K, x1 = 1 | 796.8 | 1306.4 | 1.42
313.15 K, x1 = 0.2004 | 763.62 | 1280.5 | 2.04
313.15 K, x1 = 0.4 | 768.39 | 1277.6 | 1.83
313.15 K, x1 = 0.4999 | 771.11 | 1276 | 1.73
313.15 K, x1 = 0.5999 | 774.09 | 1274.5 | 1.61
313.15 K, x1 = 0.8006 | 781 | 1271.3 | 1.41
313.15 K, x1 = 1 | 789.47 | 1267.8 | 1.21
323.15 K, x1 = 0.2004 | 756.66 | 1244.5 | 1.7
323.15 K, x1 = 0.4 | 761.38 | 1241.4 | 1.54
323.15 K, x1 = 0.4999 | 764.07 | 1239.7 | 1.46
323.15 K, x1 = 0.5999 | 766.99 | 1237.9 | 1.37
323.15 K, x1 = 0.8006 | 773.8 | 1234.3 | 1.21
323.15 K, x1 = 1 | 782.12 | 1230.1 | 1.04
333.15 K, x1 = 0.2004 | 749.7 | 1209.3 | 1.44
333.15 K, x1 = 0.4 | 754.35 | 1206 | 1.31
333.15 K, x1 = 0.4999 | 757 | 1204.2 | 1.24
333.15 K, x1 = 0.5999 | 759.88 | 1202.3 | 1.18
333.15 K, x1 = 0.8006 | 766.57 | 1198 | 1.03
333.15 K, x1 = 1 | 774.74 | 1193.4 | 0.895
343.15 K, x1 = 0.2004 | 742.8 | – | 1.24
343.15 K, x1 = 0.4 | 747.4 | – | 1.14
343.15 K, x1 = 0.4999 | 749.9 | – | 1.08
343.15 K, x1 = 0.5999 | 752.9 | – | 1.03
343.15 K, x1 = 0.8006 | 759.4 | – | 0.916
343.15 K, x1 = 1 | 767.3 | – | 0.799
353.15 K, x1 = 0.2004 | 735.8 | – | 1.07
353.15 K, x1 = 0.4 | 740.3 | – | 0.985
353.15 K, x1 = 0.4999 | 742.8 | – | 0.937
353.15 K, x1 = 0.5999 | 745.7 | – | 0.903
353.15 K, x1 = 0.8006 | 752.2 | – | 0.809
353.15 K, x1 = 1 | 759.9 | – | 0.709
363.15 K, x1 = 0.2004 | 728.7 | – | 0.955
363.15 K, x1 = 0.4 | 733.2 | – | 0.884
363.15 K, x1 = 0.4999 | 735.6 | – | 0.843
363.15 K, x1 = 0.5999 | 738.5 | – | 0.805
363.15 K, x1 = 0.8006 | 744.8 | – | 0.724
363.15 K, x1 = 1 | 752.4 | – | 0.637

From the NIST ThermoML archive (doi:10.1021/acs.jced.8b00692)
